Measurements taken from patent US8460635B2, “Fenretinide derivatives and uses thereof as therapeutic, diagnostic and imaging agents” (Albert Einstein College of Medicine of Yeshiva University, priority 2008, dated 2013).
Where two headings read alike, the source gives them in different places.

Columns and labels:
MON cells = test: FACS analysis of cell cycle and sub-G1 (apoptosis); type: cell-based; conditions: 2 days
Protocol: (§1) FIG. 3A-3B. Induction of cell cycle arrest and apoptosis by halogen derivatives of fenretinide. A. Cell cycle profile determined by FACS analysis of MON cells treated with either 5 or 10 μM concentrations of fenretinide and its derivatives for 2 days. Percentage of cells at various stages of cell cycle (G1, S and G2) is indicated. B. Percentage of MON cells at sub-G1 when exposed for 2 days to fenretinide and its derivatives.
as §1, with “4A-4B.” for “3A-3B.”, “peptidomimetic” for “halogen”
(§2) The effects of fenretinide, halogen substitutes, and peptidomimetic derivatives on cell cycle regulation and apoptosis were tested by using: i) cell survival assay (MTS); ii) FACS analysis; and iii) immunoblot analysis to determine the effect on Cyclin D1.

[1] = system: MON (INI1−/−) rhabdoid tumor cells; test: MTS survival assay of rhabdoid tumor cells; type: cell-based; conditions: charcoal adsorbed serum
[2] = 200 mg/day (MTD), breast cancer patients, literature (ref 3); cited from earlier work
Cyclin D1 = test: Immunoblot analysis of Cyclin D1 expression; type: cell-based; conditions: biomarker expression, Table 3
Protocol: FIG. 5A-5B. Effect of fenretinide, its derivatives and peptidomimetic compounds on expression of Cyclin D1. Immunoblot analysis to determine the effect of fenretinide and its halogen substitutes (A) and peptidomimetic compounds (B). GAPDH is a loading control.
This assay was performed using a routine laboratory protocol as previously described using chemiluminescence detection method (30). The following antibodies were used: polyclonal α-cyclin D1 Ab-3 (NeoMarkers, Cat# RB-010-P0), monoclonal α-cyclin D1 DCS-6 (NeoMarkers, Cat# MS-210-P1), α-β-Actin (Sigma Cat# A5441) and α-Tubulin-α (Sigma, Cat # T5168).
as §2

tumor cell = conditions: in vitro, literature (ref 1); read-out: IC50s, suppression of tumor cell growth in vitro; cited from earlier work
[3] = system: MON (INI1−/−) rhabdoid tumor cells; test: MTS survival assay of rhabdoid tumor cells; type: cell-based
Protocol: FIG. 1A-1D. Effect of 4HPR derivatives with phenyl group substitutions on survival of rhabdoid tumors cells. MON (INI1−/−) cells were treated with serial dilutions of the 4HPR, ATRA and 4HPR derivatives for three days. Survival assay was carried out as described using MTS assay kit. Percentage of cell survival plotted against concentration of drugs (Mean+/−SEM).
FIG. 2. Effect of fenretinide peptidomimitic derivatives on the survival of rhabdoid tumor cells in culture. % survival of MON rhabdoid tumor cells treated with fenretinide derivatives, when compared to the vehicle treated control. The data in all the panels represent the average of triplicate experiments, and the standard error is indicated.
(§3) The rhabdoid cell line (MON) (88) was cultured in RPMI 1640 supplemented with 10% fetal bovine serum, 2 mM L-glutamine, 50 U/ml penicillin, and 50 μg/ml streptomycin at 37° C. with 5% CO2 and 95% humidified air. 4-(Fenretinide) was either obtained from NCI or synthesized in house. Fenretinide or its synthetic derivatives were reconstituted in 100% ethanol as a 10 mM solution and the aliquots were stored frozen at −80° C., protected from light. Working solutions (50 μM or 200 μM) and serial dilutions were prepared by diluting the stock solution with culture medium, such that the concentration of ethanol was <2% in all dilutions.
Aliquots of 8×10^3 MON cells were plated in 96-well microdilution plates. Twenty four hours after seeding, the cells were treated with serial dilutions of each drug. Following incubation for 24 or more hours, each well was stained with 20 μl of MTS [3-(4,5-dimethylthiazol-2-yl)-5-(3-carboxymethoxyphenyl)-2-(4-sulfophenyl)-2H-tetrazolium, inner salt] that was mixed 20:1 V/V in PMS (phenazine methosulphate, CellTiter 96® AQueous Non-Radioactive Cell Proliferation Assay Kit, Promega, Madison, Wis.) added to each of the well in the microtiter plate containing 100 μl of culture medium. After 4 h incubation, the plates were analyzed by an ELISA plate reader (Wallac Victor, 1420 Multilabel Counter, Perkin Elmer) at 490 nm wave-length. Cell plating, drug treatment and survival assay were performed using the epMotion 5070 automated liquid handling robotic system (Eppendorff, Westbury, N.Y.).
Statistical analysis of the data was carried out using GraphPad Prism (San Diego, Calif.). Relative IC50 values were calculated using the nonlinear regression curve fit with sigmoidal dose response (variable slope) function. Relative IC50 is defined as the concentration giving a response exactly half way between the fitted top and bottom of the survival curve when graphed as percent inhibition versus the log of the concentration of compound. The fitting error, or standard error describes the error involved in fitting the curve.

[4] = Precipitation / solubility in cell culture medium; type: physicochemical
Protocol: as §3

[5] = MON cells, nonlinear regression, sigmoidal dose response, read-out: Relative IC50
[6] = MON rhabdoid cells, survival assay, values in text, read-out: IC50
[7] = regular FBS, read-out: IC50 (in regular FBS)

SMILES: CC1=C(/C=C/C(C)=C/C=C/C(C)=C/C(=O)Nc2ccc(O)cc2)C(C)(C)CCC1 [Compound 4-HPR, N-(4-hydroxyphenyl)retinamide, reference compound]
- % G1 (MON cells; 5 μM, Table 5): 86.32%
- % G2 (MON cells; 5 μM, Table 5): 6.73%
- % S (MON cells; 5 μM, Table 5): 6.95%
- SubG1 (percentage of MON cells at sub-G1) (MON cells; 5 μM, Table 5): 37.12%
- % G1 (MON cells; 5 μM, Table 6): 86.32%
- % G2 (MON cells; 5 μM, Table 6): 6.49%
- % S (MON cells; 5 μM, Table 6): 6.95%
- SubG1 (percentage of MON cells at sub-G1) (MON cells; 5 μM, Table 6): 37.12%
- % G1 (MON cells; 10 μM, Table 5): 85.41%
- % G2 (MON cells; 10 μM, Table 5): 6.66%
- % S (MON cells; 10 μM, Table 5): 7.93%
- SubG1 (percentage of MON cells at sub-G1) (MON cells; 10 μM, Table 5): 73.98%
- % G1 (MON cells; 10 μM, Table 6): 85.41%
- % G2 (MON cells; 10 μM, Table 6): 7.60%
- % S (MON cells; 10 μM, Table 6): 8.02%
- SubG1 (percentage of MON cells at sub-G1) (MON cells; 10 μM, Table 6): 73.98%
- IC50 [1]: 2 µM
- plasma concentration [2]: 1000 nM
- Repression of Cyclin D1 (Cyclin D1): Yes
- IC50 (tumor cell): 1 to 10 µM
- IC50 [3, 5]: 14.7 µM
- IC50 ([3]; MON cells, three days, compounds in FIG. 1A-1D, concentration of drug required to kill 50% of cells, read-out: IC50): 19 µM
- IC50 [3, 6]: ~15 µM
- IC50 [3, 7]: 12 to 19 µM

SMILES: CC1=C(/C=C/C(C)=C/C=C/C(C)=C/C(=O)Nc2ccc(I)cc2)C(C)(C)CCC1 [5(d), (2E,4E,6E,8E)-[3,7-Dimethyl-9-(2,6,6-trimethyl-1-cyclohexenyl)-nona-2,4,6,8-tetraenoylamino]-(4-iodo)phenylamide]
- behaviour in cell culture medium (precipitation / insolubility) [4]: precipitated in cell culture medium
- IC50 [1]: > 15 µM
- IC50 [3, 7]: > 50 µM

SMILES: CCC1=C(C)/C(=C/c2ccc(C(=O)Nc3ccc(O)c(I)c3)cc2)CCC1(C)C [Compound 11d, (E)-4-((3-ethyl-2,4,4-trimethylcyclohex-2-enylidene)methyl)-N-(4-hydroxy-3-iodophenyl)benzamide]
- behaviour in cell culture medium (precipitation / insolubility) [4]: did not show any precipitation
- IC50 [3, 5]: 3.15 µM
- IC50 [3, 6]: 3 µM
- cytotoxic activity against rhabdoid tumor cells (in words) ([3]; compared with 4-HPR): more active when compared to parent Fenretinide
